Like-named read-outs stand apart in the source and are kept apart here. Non-standard residues stand in square brackets, D forms with d. Residues, ends and D or L forms follow the SMILES beside them. *: point of attachment. Biotin = O=C1N[C@H]2[C@H](CS[C@H]2CCCCC(=O)*)N1; pS = N[C@@H](COP(=O)(O)O)C(=O)O Some results are limits rather than exact numbers.

The experiment concerns the target T1, Recombinant S. cerevisiae Ess1 protein (Saccharomyces cerevisiae, UniProt P22696).
T1 construct: made in house; host or cells: Escherichia coli
T1 sequence (P22696 1-170): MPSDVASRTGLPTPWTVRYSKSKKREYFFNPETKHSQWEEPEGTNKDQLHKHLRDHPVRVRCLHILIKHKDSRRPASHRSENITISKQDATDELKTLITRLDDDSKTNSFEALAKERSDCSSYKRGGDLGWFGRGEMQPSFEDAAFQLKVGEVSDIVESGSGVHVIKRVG
Description: Biolayer interferometry (BLI) kinetic assays of Ess1/peptide binding. The settings on record: for Ess1 binding (in words) / Kd / kon: BLI; for Ess1 binding (in words): Ess1 3, 10, 30 μM, Figure 6, S1, S3; for kon: slope of kobs vs Ess1 concentration (Fig. S2), read-out: ka (association rate); for koff: read-out: kd (dissociation rate). How it is done:
Biolayer interferometry (BLI) was measured at 24° with an Octet RED system (FortéBio), essentially as described ([Shah and Duncan 2013]; [Shah et al. 2013]). Peptides were synthesized with N-terminal biotinylation (NEOBioLab). Phosphoserine residues were incorporated during synthesis and all peptides were purified to >95% purity by high-performance liquid chromatography (NEOBioLab). Each peptide included 4-6 N-terminal residues (typically [Gly-Gly-Ser]2) as a flexible linker to facilitate binding of Ess1 protein to the surface-immobilized peptide. BLI assays were carried out in 20 mM Tris-HCl pH 8.0, 1 mg/mL bovine serum albumin (Sigma-Aldrich; A6003-10G). Different peptides were immobilized on separate streptavidin-coated biosensors (FortéBio; cat. no. 18-5019). For each peptide sequence, sensors loaded with phosphorylated or unphosphorylated peptides were assayed in parallel, and the peptide concentrations (50−200 nM) and time of loading were controlled to achieve essentially the same level of peptide signal loaded, regardless of phosphorylation status (e.g., Figure S1). Recombinant S. cerevisiae Ess1 protein was purified from Escherichia coli as described ([Li et al. 2005]). Ess1 was incubated with peptide-loaded and control (no peptide) biosensors to measure kinetics of Ess1/peptide association, and sensors were moved to buffer alone to measure dissociation kinetics. To correct for low but significant nonspecific binding of Ess1 to sensors, data from a sensor without peptide within the same experiment were subtracted for each concentration of Ess1 used. For direct comparison of Ess1 binding to different peptides (Figure 6), signals were normalized for the levels of sensor-loaded peptide (0.2−0.5 nm) between sequential runs within the experiment. Data were analyzed using FortéBio Data Analysis software (Versions 6.4), and by linear and nonlinear regression in Prism (GraphPad, version 4).
To determine whether Ess1 interacts directly with Swi6 and Whi5, we conducted binding assays by using purified Ess1 protein and phospho-Ser-Pro or Ser-Pro peptides corresponding to the NLS motif of Swi6 and both NLS and NES motifs of Whi5. Binding was assayed using BLI ([Shah and Duncan 2013]). In brief, biotinylated peptides corresponding to the NLS or NES motifs were immobilized on streptavidin-coated sensors and binding of purified Ess1 protein was measured using BLI. Ess1 protein binding to immobilized peptide changes the optical interference at the sensor surface, measured as nm of spectral shift. Using this approach, we monitored the kinetics of binding and dissociation of Ess1. […] Binding was dependent on Ess1 concentration (3, 10, and 30 μM were used).
Figure 6 In vitro binding of Ess1 to Swi6 and Whi5 peptides. Kinetics for binding and dissociation of purified Ess1 protein with NLS and NES peptides were monitored using biolayer interferometry (BLI). Sensor-immobilized peptides: (A) carboxy-terminal domain (CTD) of RNA polymerase II (RNAPII), (B) Swi6-NLS, (C) Whi5-NLS, and (D) Whi5-NES. Data for phosphorylated peptides (P) are shown in black, unphosphorylated peptides (Un) in blue, and fitting curves are shown in red. Biotinylated peptides were loaded on individual streptavidin sensors, followed by a wash to remove unbound peptide. To measure Ess1 binding, sensors were transferred from buffer alone to buffer containing 3, 10, or 30 μM Ess1 protein (time zero) as indicated. After 300 sec, sensors were transferred to fresh buffer (without Ess1) to monitor Ess1 dissociation. Examples of raw data for these experiments, including the peptide-loading step and control sensors with no peptide are shown in Figure S1.
Table S4 Fitting Results for BLI Kinetic Assays
Peptide ka (M-1s-1) ±SD kd (s-1) ±SD %Rmax ±SD
Summary of results for fitting curves of BLI kinetic data (Fig. 6). The dissociation rate (kd) is an average (±standard deviation
(SD)) for fits at 3 concentrations of each peptide (3, 10, 30 µM). […]
Background: Biolayer interferometry detects binding as a change in optical thickness at a sensor tip.

The mark [1] stands for this setting: estimated from binding isotherm F = E/(E + Kapp) with signal at 30 μM Ess1 relative to saturated signal of the cognate phosphorylated peptide, read-out: Kapp (estimated, unphosphorylated peptides).
Setting [2] is: 24°, 20 mM Tris-HCl pH 8.0, 1 mg/mL BSA, plateau binding responses vs Ess1 concentration (3, 10, 30 μM) fit to hyperbolic binding isotherm, read-out: KappEq (Equilibrium).

Regarding `C[C@@H](O)[C@H](NC(=O)[C@@H]1CCCN1C(=O)[C@H](CO)NC(=O)[C@H](Cc1ccc(O)cc1)NC(=O)[C@H](CO)NC(=O)CNC(=O)CNC(=O)[C@H](CO)NC(=O)CNC(=O)CNC(=O)CCCC[C@@H]1SC[C@@H]2NC(=O)N[C@@H]21)C(=O)N[C@@H](CO)C(=O)N1CCC[C@H]1C(=O)N[C@@H](CO)C(=O)N[C@@H](Cc1ccc(O)cc1)C(=O)N[C@@H](CO)C(=O)O` [CTD, reference compound] (Biotin-GGSGGSYSPTSPSYS-OH; N-terminus and C-terminus assumed), the “Ess1 binding (in words)” value is given as “very little binding”. For the same compound, the Kd under setting [1] is more than 300 µM.

For `C[C@@H](O)[C@H](NC(=O)[C@@H]1CCCN1C(=O)[C@H](CO)NC(=O)[C@H](Cc1ccc(O)cc1)NC(=O)[C@H](CO)NC(=O)CNC(=O)CNC(=O)[C@H](CO)NC(=O)CNC(=O)CN)C(=O)N[C@@H](COP(=O)(O)O)C(=O)N1CCC[C@H]1C(=O)N[C@@H](CO)C(=O)N[C@@H](Cc1ccc(O)cc1)C(=O)N[C@@H](CO)C(=O)O` [CTD-P, reference compound] (H-GGSGGSYSPT[pS]PSYS-OH), the kon turned out to be 27100 M⁻¹ s⁻¹ and the koff was 0.0923 s⁻¹. For the same compound, the Kd under setting [2] came out at 1.65 ± 0.06 µM.

Consider `CC[C@H](C)[C@H](NC(=O)CNC(=O)[C@@H]1CCCN1C(=O)[C@@H]1CCCN1C(=O)[C@H](CO)NC(=O)[C@@H]1CCCN1C(=O)[C@@H]1CCCN1C(=O)[C@H](CO)NC(=O)[C@@H]1CCCN1C(=O)[C@@H](NC(=O)CNC(=O)CNC(=O)[C@H](CO)NC(=O)CNC(=O)CNC(=O)CCCC[C@@H]1SC[C@@H]2NC(=O)N[C@@H]21)[C@@H](C)O)C(=O)O` [Whi5-NLS] (Biotin-GGSGGTPSPPSPPGI-OH; N-terminus and C-terminus assumed), for which the Kd under setting [1] is more than 25 µM.

With “H3 aa1-21 unphosphorylated: "nonsubstrate" peptide (H3 aa1-21) in the unphosphorylated form [reference compound]”, the “Ess1 binding (in words)” value is “did not bind”.

On to `CC(C)C[C@H](NC(=O)[C@H](CCC(=O)O)NC(=O)[C@H](CCCNC(=N)N)NC(=O)[C@H](CO)NC(=O)CNC(=O)CNC(=O)[C@H](CO)NC(=O)CNC(=O)CN)C(=O)NCC(=O)N[C@@H](COP(=O)(O)O)C(=O)N1CCC[C@H]1C(=O)N[C@@H](CC(C)C)C(=O)N[C@@H](CCCCN)C(=O)N[C@@H](CCCCN)C(=O)O` [Swi6-NLS-P] (H-GGSGGSRELG[pS]PLKK-OH), for which the kon was determined as 25100 M⁻¹ s⁻¹ and the koff turned out to be 0.254 s⁻¹. Besides, the Kd under setting [2] worked out at 10.1 ± 5.1 µM.

Turning to `CC(C)C[C@H](NC(=O)[C@H](CCCNC(=N)N)NC(=O)[C@@H]1CCCN1C(=O)[C@H](CO)NC(=O)[C@@H]1CCCN1C(=O)[C@H](CO)NC(=O)[C@H](CC(C)C)NC(=O)[C@H](Cc1ccccc1)NC(=O)CNC(=O)CNC(=O)[C@H](CO)NC(=O)CNC(=O)CNC(=O)CCCC[C@@H]1SC[C@@H]2NC(=O)N[C@@H]21)C(=O)N[C@@H](CCCNC(=N)N)C(=O)N[C@@H](CO)C(=O)N1CCC[C@H]1C(=O)N1CCC[C@H]1C(=O)N[C@H](C(=O)O)[C@@H](C)O` [Whi5-NES] (Biotin-GGSGGFLSPSPRLRSPPT-OH; N-terminus and C-terminus assumed), the Kd under setting [1] was more than 1500 µM.

For the compound `CC(C)C[C@H](NC(=O)[C@H](CCC(=O)O)NC(=O)[C@H](CCCNC(=N)N)NC(=O)[C@H](CO)NC(=O)CNC(=O)CNC(=O)[C@H](CO)NC(=O)CNC(=O)CNC(=O)CCCC[C@@H]1SC[C@@H]2NC(=O)N[C@@H]21)C(=O)NCC(=O)N[C@@H](CO)C(=O)N1CCC[C@H]1C(=O)N[C@@H](CC(C)C)C(=O)N[C@@H](CCCCN)C(=O)N[C@@H](CCCCN)C(=O)O` [Swi6-NLS] (Biotin-GGSGGSRELGSPLKK-OH; N-terminus and C-terminus assumed), the Kd under setting [1] was more than 100 µM.

On to “H3 aa1-21 (Ser10-P): "nonsubstrate" peptide (H3 aa1-21) in the phosphorylated form (Ser10-P) [reference compound]”, for which the “Ess1 binding (in words)” value is “did not bind”.

In the case of `CC[C@H](C)[C@H](NC(=O)CNC(=O)[C@@H]1CCCN1C(=O)[C@@H]1CCCN1C(=O)[C@H](COP(=O)(O)O)NC(=O)[C@@H]1CCCN1C(=O)[C@@H]1CCCN1C(=O)[C@H](COP(=O)(O)O)NC(=O)[C@@H]1CCCN1C(=O)[C@@H](NC(=O)CNC(=O)CNC(=O)[C@H](CO)NC(=O)CNC(=O)CN)[C@@H](C)O)C(=O)O` [Whi5-NLS-P] (H-GGSGGTP[pS]PP[pS]PPGI-OH), the kon was found to be 22800 M⁻¹ s⁻¹ and the koff was 0.0722 s⁻¹. Moreover, under setting [2], the Kd was found to be 0.48 ± 0.46 µM.

For `CC(C)C[C@H](NC(=O)[C@H](CCCNC(=N)N)NC(=O)[C@@H]1CCCN1C(=O)[C@H](COP(=O)(O)O)NC(=O)[C@@H]1CCCN1C(=O)[C@H](COP(=O)(O)O)NC(=O)[C@H](CC(C)C)NC(=O)[C@H](Cc1ccccc1)NC(=O)CNC(=O)CNC(=O)[C@H](CO)NC(=O)CNC(=O)CN)C(=O)N[C@@H](CCCNC(=N)N)C(=O)N[C@@H](COP(=O)(O)O)C(=O)N1CCC[C@H]1C(=O)N1CCC[C@H]1C(=O)N[C@H](C(=O)O)[C@@H](C)O` [Whi5-NES-P] (H-GGSGGFL[pS]P[pS]PRLR[pS]PPT-OH), the kon turned out to be 17500 M⁻¹ s⁻¹ and the koff amounted to 0.0503 s⁻¹. Also, the Kd under setting [2] was 1.13 ± 0.18 µM.

Values taken from PMC3962490, “The Yeast Ess1 Prolyl Isomerase Controls Swi6 and Whi5 Nuclear Localization” (G3: Genes|Genomes|Genetics, 2014).
